# Data published in ChEMBL document CHEMBL1201862, “PubChem BioAssay data set” (2004).
# Calls of active or inactive are those of the source.
# How the values were obtained:
# Streptokinase A = target: T1, Streptokinase A (Streptococcus pyogenes serotype M1, UniProt P10520); assay: Absorbance Microorganism-Based Dose Response Follow up to Identify Inhibitors of Streptokinase Expression. [Related pubchem assays: 1677 (Project Summary), 1915, 1914, 1902 (Retest at Dose), 1900 (Counter Screen), 1662 (Primary HTS)]; format: functional, Streptococcus pyogenes M1 GAS
# T1 sequence (P10520 whole entry): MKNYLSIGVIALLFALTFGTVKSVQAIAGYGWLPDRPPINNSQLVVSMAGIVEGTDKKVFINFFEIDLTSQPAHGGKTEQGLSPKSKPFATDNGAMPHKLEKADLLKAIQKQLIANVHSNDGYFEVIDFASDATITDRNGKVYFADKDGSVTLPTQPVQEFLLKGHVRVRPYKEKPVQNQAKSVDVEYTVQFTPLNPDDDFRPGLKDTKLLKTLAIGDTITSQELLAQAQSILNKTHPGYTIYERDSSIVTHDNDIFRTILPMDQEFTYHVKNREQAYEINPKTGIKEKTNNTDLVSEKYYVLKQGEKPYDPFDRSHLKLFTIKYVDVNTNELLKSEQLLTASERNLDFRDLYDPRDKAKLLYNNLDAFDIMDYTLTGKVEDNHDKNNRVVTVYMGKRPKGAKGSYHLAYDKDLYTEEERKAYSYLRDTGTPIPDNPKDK
# Streptococcus [1] = assay: GAS bacterial viability reduction – luminescence, BacTiter-Glo, strain UMAA2166, counter-screen for streptokinase expression inhibitor project, dose response (AID 2477); format: functional, organism-based
# Bcl-2-like protein 10 = target: T2, Bcl-2-like protein 10 (Homo sapiens, UniProt Q9HD36); assay: Concentration-response of Bcl-B inhibitors by biochemical FP with TR3 (AID 1243); format: functional
# T2 sequence (Q9HD36 whole entry): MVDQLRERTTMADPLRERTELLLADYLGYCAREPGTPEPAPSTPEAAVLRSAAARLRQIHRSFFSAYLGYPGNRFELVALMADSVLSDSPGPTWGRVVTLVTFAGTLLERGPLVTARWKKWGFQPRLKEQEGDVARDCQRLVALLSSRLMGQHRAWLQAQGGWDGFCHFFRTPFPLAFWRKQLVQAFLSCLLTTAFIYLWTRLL
# [2] = reduction of Shn3 3'UTR-driven luciferase in osteoblasts – cell-based, Clone20 osteoblasts, firefly luciferase, cherry-picked, dose response (AID 624132); format: functional;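 further: firefly luciferase luminescence from reporter carrying the Shn3 3'UTR in osteoblasts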
# Galanin receptor type 2 = target: T3, Galanin receptor type 2 (Homo sapiens, UniProt O43603); assay: Dose Response cell-based high-throughput screening assay to identify agonists of galanin receptor 2 (GALR2). [Related pubchem assays: 864 ]; format: functional
# T3 sequence (O43603 whole entry): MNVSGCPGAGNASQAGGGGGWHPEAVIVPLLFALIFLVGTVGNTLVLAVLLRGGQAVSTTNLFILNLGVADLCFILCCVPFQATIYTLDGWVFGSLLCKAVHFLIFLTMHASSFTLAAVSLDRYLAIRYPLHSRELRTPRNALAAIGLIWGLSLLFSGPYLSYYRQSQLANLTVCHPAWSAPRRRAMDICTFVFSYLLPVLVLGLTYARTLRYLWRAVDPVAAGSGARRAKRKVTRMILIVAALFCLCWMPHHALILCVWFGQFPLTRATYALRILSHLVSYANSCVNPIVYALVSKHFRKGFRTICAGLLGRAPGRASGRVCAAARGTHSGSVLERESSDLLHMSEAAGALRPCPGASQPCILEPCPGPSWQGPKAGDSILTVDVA
# [3] = non-specific 3'UTR reporter inhibition in Clone20-Shn3RL – cell-based, Renilla luciferase, cherry-picked, counter-screen for Shn3 inhibitor project, dose response (AID 624133); format: functional
# [4] = decrease of insulin promoter-GFP reporter – imaging, high-content screening, mouse beta cells (AID 1628); format: functional; settings: MIN6
# [5] = NIH3T3 cell viability loss – ATP luminescence, mouse fibroblasts, counter-screen, dose response (AID 2010); format: functional, cell-based;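 further: cells exposed to compound for about 90 hours before reading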
# INS1 = assay: INS-1E survival protection against cytokine death – cell-based, luminescence, retest, dose response (AID 449756); format: functional; settings: Rattus norvegicus;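 further: cell death triggered by IL-1 beta plus TNF-alpha plus IFN-gamma mixture; protective hits raise ATP signal compared with cytokine alone wells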
# Streptococcus [6] = assay: GAS UMAA2166 growth inhibition – luminescence, BacTiterGlo, counter-screen for streptokinase expression inhibitor project, dose response (AID 1915); format: functional, organism-based;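 further: potency for reduction of bacterial viability or growth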
# [7] = Trypanosoma cruzi growth suppression in host cells – NIH3T3 host cells, beta-gal luminescence, confirmation (AID 2044); format: functional, cell-based;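 further: intracellular parasites grown in NIH/3T3 mouse fibroblasts as host cells; luminescent beta-galactosidase reporter signal from transgenic T. cruzi replicating inside host cells; inhibitors lower the luminescence signal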
# [8] = loss of viability in HepG2 cells – cell-based, CellTiter-Glo, cherry-picked, cytotoxicity control for Shn3 inhibitor project, dose response (AID 624134); format: functional
# [9] = MIN6 cell viability loss – mouse insulinoma, cytotoxicity control, dose response (AID 2122); format: functional;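 further: confirmatory high-throughput counterscreen run to flag cytotoxic compounds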
# [10] = test system: Streptococcus sp. 'group A'; assay: Streptococcus pyogenes SK(-)GAS viability under kanamycin – luminescence, BacTiterGlo, confirmation, counter-screen for streptokinase expression inhibitor project, dose response (AID 1900); format: functional, organism-based
# [11] = target: Muscarinic acetylcholine receptor M1 (Rattus norvegicus, UniProt P08482); assay: concentration-dependent potentiation of ACh at M1 – cell-based, calcium mobilization, CHO-K1, ACh EC20, dose response (AID 2425); format: functional
# Muscarinic acetylcholine receptor M1, sequence (P08482 whole entry): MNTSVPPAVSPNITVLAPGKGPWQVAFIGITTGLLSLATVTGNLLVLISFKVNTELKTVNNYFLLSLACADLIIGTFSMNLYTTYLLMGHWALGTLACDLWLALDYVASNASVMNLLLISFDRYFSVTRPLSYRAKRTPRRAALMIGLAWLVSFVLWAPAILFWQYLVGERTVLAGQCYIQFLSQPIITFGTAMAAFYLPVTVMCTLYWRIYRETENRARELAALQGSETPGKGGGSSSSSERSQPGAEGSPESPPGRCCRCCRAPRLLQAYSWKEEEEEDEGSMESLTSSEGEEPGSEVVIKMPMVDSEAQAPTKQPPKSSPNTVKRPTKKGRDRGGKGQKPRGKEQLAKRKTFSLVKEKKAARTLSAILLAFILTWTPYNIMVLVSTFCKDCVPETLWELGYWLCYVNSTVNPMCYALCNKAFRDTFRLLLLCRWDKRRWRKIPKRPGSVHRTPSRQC
# [12] = M. tuberculosis growth inhibition, HTS (AID 449762); format: functional
# Ephrin type-A receptor 4 = Ephrin type-A receptor 4 (Mus musculus, UniProt Q03137); assay: EphA4 ligand-binding antagonists – biochemical, colorimetric, mouse EphA4, primary screen (AID 689); format: functional
# Ephrin type-A receptor 4, sequence (Q03137 whole entry): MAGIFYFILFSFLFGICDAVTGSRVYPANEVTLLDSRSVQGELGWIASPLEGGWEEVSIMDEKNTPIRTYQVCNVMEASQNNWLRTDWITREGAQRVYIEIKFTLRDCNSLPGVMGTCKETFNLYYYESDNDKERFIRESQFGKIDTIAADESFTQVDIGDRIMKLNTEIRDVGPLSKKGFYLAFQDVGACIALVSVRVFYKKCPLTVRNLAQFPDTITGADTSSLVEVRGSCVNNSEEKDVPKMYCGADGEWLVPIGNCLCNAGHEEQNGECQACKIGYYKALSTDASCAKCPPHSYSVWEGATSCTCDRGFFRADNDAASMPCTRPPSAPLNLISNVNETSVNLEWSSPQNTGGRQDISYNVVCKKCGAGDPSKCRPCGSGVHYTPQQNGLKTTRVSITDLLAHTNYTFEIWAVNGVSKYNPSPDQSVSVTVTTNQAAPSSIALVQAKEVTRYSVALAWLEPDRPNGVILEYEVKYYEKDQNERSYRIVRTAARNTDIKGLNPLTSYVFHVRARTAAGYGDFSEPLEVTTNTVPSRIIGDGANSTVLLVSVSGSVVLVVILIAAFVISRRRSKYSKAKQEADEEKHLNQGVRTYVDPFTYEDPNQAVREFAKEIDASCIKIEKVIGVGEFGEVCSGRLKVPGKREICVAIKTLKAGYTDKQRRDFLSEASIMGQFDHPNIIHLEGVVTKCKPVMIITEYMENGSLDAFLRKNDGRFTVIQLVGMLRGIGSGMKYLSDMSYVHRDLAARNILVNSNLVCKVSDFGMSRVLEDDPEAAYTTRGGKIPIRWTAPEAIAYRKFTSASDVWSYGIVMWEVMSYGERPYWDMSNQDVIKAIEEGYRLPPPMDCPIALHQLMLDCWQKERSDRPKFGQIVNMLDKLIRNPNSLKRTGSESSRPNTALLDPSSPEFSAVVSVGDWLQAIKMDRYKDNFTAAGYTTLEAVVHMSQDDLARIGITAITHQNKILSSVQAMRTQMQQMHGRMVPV
# [13] = T. cruzi growth inhibition in host cells, dose response, cell-based, plate reader, dry powder, set 2 (AID 652275); format: functional
# [14] = Luminescence Cell-Based/Microorganism Confirmation at Dose of Inhibitors of Trypanosoma cruzi Infection. [Related pubchem assays: 1885, 1968 ]; format: functional
# [15] = anti-trypanosomal activity in BESM host cells – imaging, CA-I/72 strain, bovine embryo skeletal muscle, dry powder, dose response (AID 651885); format: functional, cell-based
# [16] = T. cruzi infection blockers in NIH3T3 cells – beta-gal luminescence, NIH3T3 host cells, confirmation (AID 2630); format: functional, cell-based; settings: Mus musculus
# [17] = Luminescence Cell-Based Secondary HTS screen to identify cytotoxic compounds of NIH3T3 cells. [Related pubchem assays: 1885, 1968 ]; format: functional
smiles,measurement,setting,value
COc1ccc(-c2nc(OC)c3ccccc3n2)cc1,EC50,Streptokinase A,63200 nM (active)
same,EC50,Streptococcus [1],> 500000 nM (not active)
Cc1ccc2oc3cc(NCCCN(C)C)c4c(=O)c5ccccc5c(=O)c4c3[nH]c2c1,EC50,Bcl-2-like protein 10,670 nM (active)
Cc1cc(C)c2nc(NNC(=O)c3ccc(S(=O)(=O)N4CC(C)CC(C)C4)cc3)sc2c1 (stereo not given),AC50,[2],2280 nM (active)
same,EC50,Galanin receptor type 2,> 55700 nM (not active)
same,AC50,[3],2100 nM (active)
same,IC50,[4],4160 nM (active)
same,EC50,[5],3390 nM (active)
same,AC50,INS1,1960 nM (active)
same,EC50,Streptococcus [6],2550 nM (active)
same,EC50,[7],1350 nM (active)
same,AC50,[8],7560 nM (active)
same,IC50,[9],3680 nM (active)
same,EC50,[10],697 nM (active)
Cc1cc(NC(=O)CS(=O)(=O)c2cn(Cc3cc(Br)ccc3F)c3ccccc23)no1,EC50,[11],1420 nM (active)
CCCNC(=O)NC(=O)COc1ccc2oc3ccccc3c2c1,IC50,[12],> 100000 nM (active)
CCCCN(CCCC)c1nc2ccccc2nc1/C(C#N)=C(/O)OCC,IC50,Ephrin type-A receptor 4,5650 nM (active)
CCCn1ncc(CN2CCCC(C(=O)c3cccc(OC(C)C)c3)C2)c1C (stereo not given),EC50,cells,54 nM (active)
same,EC50,[5],> 60000 nM (not active)
same,AC50,[13],58.9 nM (active)
same,EC50,[7],< 100 nM (active)
same,EC50,[14],47 nM (active)
same,IC50,[15],> 20000 nM (inactive)
same,EC50,[16],47 nM (active)
same,EC50,[17],> 195000 nM (not active)
